From patent US10144732B2 (BIOGEN MA INC., priority 2014, dated 2018)
Several values for one entry are separate records, joined by “and”; a condition that tells them apart may be missing. Equal entries are not always repeated. Structures can show the parent of a compound that is named as a salt.

Molecular target: T1, Human ATX protein (Homo sapiens, UniProt Q13822)
T1 construct: made in house
Assay: ATX biochemical assay (FRET, FS-3 substrate)
Conditions: FRET assay, FS-3 2 μM, ATX 1.0 μg/mL, 30 minutes preincubation, 2 hours reaction at room temperature; read-out: IC50
Text: ATX (Autotaxin) is a 125 KDa glycoprotein with lysophospholipase D (LPLD) activity that generates the bioactive lipid lysophosphatidic acid (LPA) from lysophosphatidylcholine (LPC). The ATX biochemical assay utilizes a FRET (fluorescence resonance energy transfer) technology platform. The fluorescence signal of FRET substrate FS-3 is quenched due to intra-molecular FRET of a fluorophore to a non-fluorescing quencher (Ferguson, C. G., et al., Org Lett. 2006 May 11; 8(10): 2023-2026, which is incorporated by reference in its entirety). ATX catalyzes the hydrolysis of the substrate which separates the dabsyl quencher from the fluorescein reporter, which becomes fluorescent. The reaction is monitored by a SpectraMax M5 (Molecular Devices, Sunnyvale, Calif.) with at excitation wavelength 485 nm and emission wavelength […].
Fatty acid free-BSA (Sigma A8806): 10 mg/mL in H2O, stored at 4° C.
2×ATX assay buffer: 100 mM Tris, 280 mM NaCl, 10 mM KCl, 2 mM CaCl2, 2 mM MgCl2, pH 7.4.
Human ATX protein: expressed and purified in house. Stored at −80° C.
Substrate FS-3 (Echelon, L-2000): 100 μg in 77.74 μL H2O (1 mM stock), stored at −20° C.
384-well flat bottom plates—Corning #3575.
Compound dilution—All compounds were provided at 10 mM in 100% DMSO. In the first well, 2 μL of 10 mM compound was added to 78 μL of DMSO (1:40 dilution). In subsequent wells 3-fold dilution (total 10 dilutions) were performed.
1×ATX assay buffer was made up with a final concentration of 1 mg/mL fatty acid free-BSA using 2×ATX assay buffer, 10 mg/ml fatty acid free-BSA and ddH2O.
[…]. The final concentration of ATX in the reaction as 1.0 μg/mL.
2 μL per well of compounds was transferred to provide the desired concentration. The plate was centrifuged, then incubated at room temperature for 30 minutes on the shaker.
FS-3 was diluted with 1×ATX assay buffer to a concentration of FS-3 of 10 μM (5×). Then, 10 μL was added per well to the assay plate. The final concentration of FS-3 in the reaction was 2 μM. The plate was centrifuged. The plate was kept shaking at room temperature for 2 hours. Because FS-3 substrate is light sensitive, plates were kept covered and protected from light.
Fluorescence was measured using SpectraMax M5 (excitation at 485 nm/emission at 538 nm, top read).

| Structure (SMILES) | IC50 |
| --- | --- |
| NC(=O)c1nn(Cc2ccc(F)cc2)c2c1CCN(C(=O)C[C@H]1CC[C@H](C(=O)O)CC1)C2 [Example 5-47, trans-4-(2-(3-Carbamoyl-1-(4-fluorobenzyl)-4,5-dihydro-1H-pyrazolo[3,4-c]pyridin-6(7H)-yl)-2-oxoethyl)cyclohexanecarboxylic acid] | 250 to 500 nM |
| O=C(O)c1ccc(CC(=O)N2CCc3c(C(F)(F)F)nn(Cc4ccc(Cl)cc4F)c3C2)cc1 [Example 5-5, 4-(2-(1-(4-Chloro-2-fluorobenzyl)-3-(trifluoromethyl)-4,5-dihydro-1H-pyrazolo[3,4-c]pyridin-6(7H)-yl)-2-oxoethyl)benzoic acid] | ≤ 100 nM |
| Cc1ccc(Cn2nc(C(F)(F)F)c3c2CN(C(=O)C[C@H]2CC[C@H](C(=O)O)CC2)CC3)cc1 [Example 5-14, trans-4-(2-(1-(4-Methylbenzyl)-3-(trifluoromethyl)-4,5-dihydro-1H-pyrazolo[3,4-c]pyridin-6(7H)-yl)-2-oxoethyl)cyclohexanecarboxylic acid] | ≤ 100 nM |
| O=C(O)C1CCC(CC(=O)N2CCc3c(C(F)(F)F)nn(CC4CCCCC4)c3C2)CC1 (single isomer, unassigned) [Example 7-13, 4-(2-(1-(cyclohexylmethyl)-3-(trifluoromethyl)-4,5-dihydro-1H-pyrazolo[3,4-c]pyridin-6(7H)-yl)-2-oxoethyl)cyclohexanecarboxylic acid] | ≤ 100 nM |
| CCOC(=O)[C@H]1CC[C@H](CC(=O)N2CCc3c(C(N)=O)nn(Cc4ccc(F)cc4)c3C2)CC1 [Example 1-42, trans-Ethyl 4-(2-(3-carbamoyl-1-(4-fluorobenzyl)-4,5-dihydro-1H-pyrazolo[3,4-c]pyridin-6(7H)-yl)-2-oxoethyl)cyclohexanecarboxylate] | > 500 nM and ≤ 10000 nM |
| O=C(CC1CNC1)N1CCc2c(C(F)(F)F)nn(Cc3ccc(Cl)cc3F)c2C1 [Example 9-3, 2-(Azetidin-3-yl)-1-(1-(4-chloro-2-fluorobenzyl)-3-(trifluoromethyl)-4,5-dihydro-1H-pyrazolo[3,4-c]pyridin-6(7H)-yl)ethanone TFA salt] | ≤ 100 nM |
| CCOC(=O)C1CCC(CC(=O)N2CCc3c(C(F)(F)F)nn(Cc4cccc(F)c4)c3C2)CC1 (stereo not drawn) [Example 1-18, Ethyl 4-(2-(1-(3-fluorobenzyl)-3-(trifluoromethyl)-4,5-dihydro-1H-pyrazolo[3,4-c]pyridin-6(7H)-yl)-2-oxoethyl)cyclohexanecarboxylate] | ≤ 100 nM |
| CCOC(=O)C1CCC(CC(=O)N2CCc3c(C(F)(F)F)nn(Cc4ccccc4)c3C2)CC1 (stereo not drawn) [Example 1-13, Ethyl 4-(2-(1-benzyl-3-(trifluoromethyl)-4,5-dihydro-1H-pyrazolo[3,4-c]pyridin-6(7H)-yl)-2-oxoethyl)cyclohexanecarboxylate] | ≤ 100 nM |
| O=C(C[C@H]1CC[C@H](C(=O)O)CC1)N1CCc2c(C(F)(F)F)nn(Cc3cncnc3)c2C1 [Example 5-29, trans-4-(2-Oxo-2-(1-(pyrimidin-5-ylmethyl)-3-(trifluoromethyl)-4,5-dihydro-1H-pyrazolo[3,4-c]pyridin-6(7H)-yl)ethyl)cyclohexanecarboxylic acid] | > 500 nM and ≤ 10000 nM |
| CN1CCC(CC(=O)N2CCc3c(C(F)(F)F)nn(Cc4ccc(Cl)cc4F)c3C2)CC1 [Example 1-2, 1-(1-(4-Chloro-2-fluorobenzyl)-3-(trifluoromethyl)-4,5-dihydro-1H-pyrazolo[3,4-c]pyridin-6(7H)-yl)-2-(1-methylpiperidin-4-yl)ethanone] | ≤ 100 nM |
| O=C(C[C@H]1CC[C@H](C(=O)O)CC1)N1CCc2c(-c3cccnc3)nn(Cc3ccc(F)cc3)c2C1 [Example 5-40, trans-4-(2-(1-(4-Fluorobenzyl)-3-(pyridin-3-yl)-4,5-dihydro-1H-pyrazolo[3,4-c]pyridin-6(7H)-yl)-2-oxoethyl)cyclohexanecarboxylic acid] | ≤ 100 nM |
| COC(=O)c1ccc(CC(=O)N2CCc3c(C(F)(F)F)nn(Cc4ccc(Cl)cc4F)c3C2)cc1 [Example 1-11, Methyl 4-(2-(1-(4-chloro-2-fluorobenzyl)-3-(trifluoromethyl)-4,5-dihydro-1H-pyrazolo[3,4-c]pyridin-6(7H)-yl)-2-oxoethyl)benzoate] | ≤ 100 nM |
| CCOC(=O)[C@H]1CC[C@H](CC(=O)N2CCc3c(C(F)(F)F)nn(C4CCCCC4)c3C2)CC1 [Example 1-24, trans-Ethyl 4-(2-(1-cyclohexyl-3-(trifluoromethyl)-4,5-dihydro-1H-pyrazolo[3,4-c]pyridin-6(7H)-yl)-2-oxoethyl)cyclohexanecarboxylate] | 250 to 500 nM |

More lines, now with the values ahead:

| IC50 | Structure (SMILES) |
| --- | --- |
| ≤ 100 nM | NC(=O)[C@H]1CC[C@@H](CC(=O)N2CCc3c(C(F)(F)F)nn(Cc4ccc(F)cc4)c3C2)CC1 [Example 20-1, cis-4-(2-(1-(4-Fluorobenzyl)-3-(trifluoromethyl)-4,5-dihydro-1H-pyrazolo[3,4-c]pyridin-6(7H)-yl)-2-oxoethyl)cyclohexanecarboxamide] |
| ≤ 100 nM | CC1(C)C(NCC(=O)N2CCc3c(C(F)(F)F)nn(Cc4ccc(Cl)cc4F)c3C2)CC1C(=O)O (stereo not drawn) [Example 13-11, 3-((2-(1-(4-Chloro-2-fluorobenzyl)-3-(trifluoromethyl)-4,5-dihydro-1H-pyrazolo[3,4-c]pyridin-6(7H)-yl)-2-oxoethyl)amino)-2,2-dimethylcyclobutanecarboxylic acid TFA salt] |
| ≤ 100 nM | O=C(CN[C@H]1C[C@H](C(=O)O)C1)N1CCc2c(C(F)(F)F)nn(Cc3ccc(F)cc3)c2C1 [Example 13-29, trans-3-(2-(1-(4-Fluorobenzyl)-3-(trifluoromethyl)-4,5-dihydro-1H-pyrazolo[3,4-c]pyridin-6(7H)-yl)-2-oxoethylamino)cyclobutanecarboxylic acid TFA salt] |
| ≤ 100 nM | CS(=O)(=O)NC(=O)[C@H]1CC[C@H](CC(=O)N2CCc3c(C(F)(F)F)nn(Cc4ccc(F)cc4)c3C2)CC1 [Example 19-1, trans-4-(2-(1-(4-Fluorobenzyl)-3-(trifluoromethyl)-4,5-dihydro-1H-pyrazolo[3,4-c]pyridin-6(7H)-yl)-2-oxoethyl)-N-(methylsulfonyl)cyclohexanecarboxamide] |
| ≤ 100 nM | O=C(O)C1CN(CC(=O)N2CCc3c(C(F)(F)F)nn(Cc4ccc(Cl)cc4F)c3C2)C1 [Example 13-17, 1-(2-(1-(4-Chloro-2-fluorobenzyl)-3-(trifluoromethyl)-4,5-dihydro-1H-pyrazolo[3,4-c]pyridin-6(7H)-yl)-2-oxoethyl)azetidine-3-carboxylic acid TFA salt] |
| ≤ 100 nM | O=C(CC1CC(N2CCOCC2)C1)N1CCc2c(C(F)(F)F)nn(Cc3ccc(F)cc3)c2C1 (stereo not drawn) [Example 22-5, 1-(1-(4-Fluorobenzyl)-3-(trifluoromethyl)-4,5-dihydro-1H-pyrazolo[3,4-c]pyridin-6(7H)-yl)-2-(3-morpholinocyclobutyl)ethanone TFA salt] |
| ≤ 100 nM | N#CC1CN(CC(=O)N2CCc3c(C(F)(F)F)nn(Cc4ccc(F)cc4)c3C2)C1 [Example 12-12, 1-(2-(1-(4-Fluorobenzyl)-3-(trifluoromethyl)-4,5-dihydro-1H-pyrazolo[3,4-c]pyridin-6(7H)-yl)-2-oxoethyl)azetidine-3-carbonitrile TFA salt] |
| ≤ 100 nM | CC1CCN(CC(=O)N2CCc3c(C(F)(F)F)nn(Cc4ccc(Cl)cc4F)c3C2)CC1 [Example 12-13, 1-(1-(4-Chloro-2-fluorobenzyl)-3-(trifluoromethyl)-4,5-dihydro-1H-pyrazolo[3,4-c]pyridin-6(7H)-yl)-2-(4-methylpiperidin-1-yl)ethanone] |
